ChEMBL document CHEMBL1122706, “2,5-Anhydro-1-deoxy-1-phosphono-D-altritol, an isosteric analogue of alpha-D-ribofuranose 1-phosphate” (J Med Chem, 1984)
Activity calls are given as the source filed them. The rule behind the calls is not given here.

Columns and labels:
[1] = target: T1, Purine nucleoside phosphorylase (Homo sapiens) (UniProt P00491); experiment: Inhibitory activity against purine nucleoside phosphorylase at a concentration of 6 mM; NA = No activity
T1 sequence (whole entry): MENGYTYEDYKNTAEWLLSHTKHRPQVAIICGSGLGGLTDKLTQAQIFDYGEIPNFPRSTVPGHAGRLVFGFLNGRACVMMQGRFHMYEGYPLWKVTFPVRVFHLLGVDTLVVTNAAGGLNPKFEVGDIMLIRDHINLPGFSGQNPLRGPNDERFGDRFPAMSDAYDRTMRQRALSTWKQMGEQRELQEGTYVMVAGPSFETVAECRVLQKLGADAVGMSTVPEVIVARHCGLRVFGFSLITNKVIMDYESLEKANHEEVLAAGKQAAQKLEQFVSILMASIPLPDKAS

[2] = Inhibitory activity against uridine phosphorylase at a concentration of 4 mM by using 5-fluorouracil and ribose 1-phosphate as substrates; NI = No inhibition

SMILES | inhibition [1] | inhibition [2]
O=P(O)(O)C[C@@H]1O[C@H](CO)[C@@H](O)[C@H]1O | inactive | –
O=P(O)(O)C[C@H]1O[C@H](CO)[C@@H](O)[C@H]1O | inactive | inactive
